Source: patent publication US4876284A, “1-alkyl-2-aminotetralin derivatives” (Per Arvid Emil Carlsson, priority 1981, dated 1989)

Columns and labels:
[1] = test system: central DA-receptor (pre- and/or postsynaptic); conditions: reserpine-pretreated rats, s.c., cited from earlier work
[2] = test system: postsynaptic DA receptors; assay: Antagonism of the reserpine plus α-methyl-para-tyrosine-induced immobility (neuroleptic syndrome) in rats; motor activity
DA autoreceptors = assay: Spontaneous locomotor activity in non-pretreated rats; type: in vivo, rat; conditions: non-pretreated rats
Procedure: Untreated animals exposed to a new environment display an initial high motor activity which then gradually declines over a period of time. Administration of DA-receptor agonists (e.g. apomorphine) in doses where preferential autoreceptor stimulation is likely to occur, causes a depression of the spontaneous motility mentioned above, considered to be due to the DA autoreceptor-medicated attenuation of central DA transmission.
Rats (150-300 g) were injected subcutaneously with compound 2,5-OH-DPAT or apomorphine and after 5 minutes they were individually placed in motility boxes ("M/P 40 Fc Electronic Motility Meter". Motron Products, Stockholm) and the motor activity (0-30 min) was quantified. […] These findings are in congruence with the results obtained with the selective DA-autoreceptor agonist 3-PPP [S. Hjorth t al., Life Sciences, 28, 1225 (1981)] but in sharp contrast to the results obtained with 5-OH-DPAT and apomorphine (Table III).
Non-pretreated rats were given compound -2 (0.0625-16.0 mg/kg),
5OH--2-(di-n-propylamino) tetralin (5OH--DPAT; 0.0125-0.05 mg/kg,
apomorphine (0.1-1.0 mg/kg) or saline subcutaneously. Five minutes later
they were placed individually into motility meters and the locomotor

[3] = in vivo; cited from earlier work
[4] = reserpine and α-methyl-para-tyrosine pretreated rats

CCCN(CCC)C1CCc2c(O)cccc2C1 (stereo not shown) [Compound 5-OHDPAT, 5-hydroxy-2-(di-n-propylamino)tetralin]
Dopa-accumulation; ED50, Limbic (taken from Hacksell et al., J. Med. Chem. 22, 1469 (1979)) ([1]; limbic forebrain): 0.111 μmol/kg s.c. | Dopa-accumulation; ED50, Striatum (taken from Hacksell et al., J. Med. Chem. 22, 1469 (1979)) ([1]; striatum): 0.009 μmol/kg s.c. | Motor activity ([2]; 0.75 mg/kg s.c., reserpine 10 mg/kg + α-methyl-para-tyrosine 250 mg/kg i.p., means ± s.e.m.): 620 ± 20 counts 0-60 min | motor response / postsynaptic DA-receptor stimulatory effects ([2]; comparative study, Table II, s.c.): strong central postsynaptic DA-receptor stimulatory effects | antagonism of the reserpine-induced syndrome / behaviour elicited [2, 4]: pronounced stereotyped and hyperactive behaviour | postsynaptic DA-receptor stimulation [2, 4]: efficient postsynaptic DA-receptor stimulants | Locomotor activity (DA autoreceptors; 0.0125 mg/kg s.c.): 84 ± 11 counts 0.30 min | Locomotor activity (DA autoreceptors; 0.05 mg/kg s.c.): 380 ± 24 counts 0.30 min | effect on locomotor activity, in words (DA autoreceptors; s.c.): lower doses significantly suppressing and higher dosess significantly stimulating the rat locomotor activity

CN(C)C1CCc2ccc(O)cc2C1(C)C (stereo not shown) [1,1-Dimethyl-2-(N,N-dimethylamino)-7-hydroxytetralin]
actions stated in CA 79: 146294b [3]: analgesic and intestinal movement accelerating actions
